In paper PMC7680425 (Cell chemical biology, 2020):

Key:
[1] = tested on: PfROM4; type: cell-based, P. falciparum; conditions: transfected HEK293T cells
[2] = tested on: PfROM4; assay: Merozoite adhesin shedding assay: EBA175 shedding by PfROM4; type: cell-based, P. falciparum; conditions: 10μM RiKa (p=0.0014) or 25mM EGTA, 90 min at 37°C

| Molecule | inhibition of EBA175 processing by PfROM4 [1] | shedding of EBA175 by PfROM4 from free merozoites [2] |
| --- | --- | --- |
| Ac-KRFRSMQYSA-CHO (Ac-KRFRSMQYSA-aldehyde; SMILES CSCC[C@H](NC(=O)[C@H](CO)NC(=O)[C@H](CCCNC(=N)N)NC(=O)[C@H](Cc1ccccc1)NC(=O)[C@H](CCCNC(=N)N)NC(=O)[C@H](CCCCN)NC(C)=O)C(=O)N[C@@H](CCC(N)=O)C(=O)N[C@@H](Cc1ccc(O)cc1)C(=O)N[C@@H](CO)C(=O)N[C@@H](C)C=O) | abrogated PfROM4 inhibition | – |
| O=C(O)CN(CCOCCOCCN(CC(=O)O)CC(=O)O)CC(=O)O [EGTA] | – | did not inhibit |
